Patent US20250129430A1, “HIGH ATP-AFFINITY PROTEIN AS THERAPEUTIC TARGET FOR INTRACTABLE CANCER MOLECULAR SUBTYPES AND INHIBITOR THEREOF” (VeraVerse Co., Ltd., priority 2021, published 2025)

Key:
Assay in all cases: Cell viability drug screen, 12-point dose-response AUC
Assay type in all cases: cell-based, human
AGS = conditions: 72 hours; for Average Area Under the Viability Curve (AUC), AUC norm value: AGS cells (non-SEM subtype)
In short: (§1)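 Gastric cancer lines seeded 5×10^3 cells/well, dosed after 24 h with half-log 12-point compound dilutions (DMSO 0.5% control), then 72 h at 37 °C. Viability by luminescence, normalized to DMSO; AUC by trapezoidal method, averaged over repeats.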

Hs746T = conditions: 72 hours; for Average Area Under the Viability Curve (AUC), AUC norm value: Hs746T cells (SEM subtype)
In short: as §1

KATO3 = KATO3 cells, 72 hours
In short: as §1

MKN1 = MKN1 cells, 72 hours
In short: as §1

MKN28 = MKN28 cells, 72 hours
In short: as §1

MKN45 = conditions: 72 hours; for Average Area Under the Viability Curve (AUC), AUC norm value: MKN45 cells (non-SEM subtype)
In short: as §1

MKN74 = MKN74 cells, 72 hours
In short: as §1

NCC19 = NCC19 cells, 72 hours
In short: as §1

NCC20 = NCC20 cells, 72 hours
In short: as §1

NCC24 = NCC24 cells, 72 hours
In short: as §1

NCC59 = NCC59 cells, 72 hours
In short: as §1

NCI_N87 = NCI_N87 cells, 72 hours
In short: as §1

OCUM1 = OCUM1 cells, 72 hours
In short: as §1

SK4 = conditions: 72 hours; for Average Area Under the Viability Curve (AUC), AUC norm value: SK4 cells (SEM subtype)
In short: as §1

SNU16 = SNU16 cells, 72 hours
In short: as §1

SNU1750 = conditions: 72 hours; for Average Area Under the Viability Curve (AUC), AUC norm value: SNU1750 cells (SEM subtype)
In short: as §1

SNU1967 = SNU1967 cells, 72 hours
In short: as §1

SNU1 = SNU1 cells, 72 hours
In short: as §1

SNU216 = conditions: 72 hours; for Average Area Under the Viability Curve (AUC), AUC norm value: SNU216 cells (non-SEM subtype)
In short: as §1

SNU484 = conditions: 72 hours; for Average Area Under the Viability Curve (AUC), AUC norm value: SNU484 cells (SEM subtype)
In short: as §1

SNU601 = SNU601 cells, 72 hours
In short: as §1

SNU620 = SNU620 cells, 72 hours
In short: as §1

SNU638 = SNU638 cells, 72 hours
In short: as §1

SNU668 = conditions: 72 hours; for Average Area Under the Viability Curve (AUC), AUC norm value: SNU668 cells (SEM subtype)
In short: as §1

SNU719 = SNU719 cells, 72 hours
In short: as §1

YCC11 = conditions: 72 hours; for Average Area Under the Viability Curve (AUC), AUC norm value: YCC11 cells (SEM subtype)
In short: as §1

YCC2 = YCC2 cells, 72 hours
In short: as §1

YCC3 = YCC3 cells, 72 hours
In short: as §1

FU97 = tested on: FU97; parameters: Average Area Under the Viability Curve (AUC), AUC norm value: scale not given here; conditions: FU97 cells, 72 hours
In short: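 Trapezoidal AUC of a 12-point, DMSO-normalized dose-response curve. Luminescent viability was measured after 72 h of exposure at 37° C to half-log serial dilutions (0.5% DMSO control), dosed 24 h after plating FU97 cells at 5×10^3 per well.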

## CC(C)C[C@H](NC(=O)CNC(=O)c1cc(Cl)ccc1Cl)B(O)O [MLN2238]
AGS; AGS cells, 12-point dose-response
  area under the viability curve (AUC), normalized: −0.8012
Hs746T; Hs746T cells, 12-point dose-response
  area under the viability curve (AUC), normalized: −1.189
KATO3; 12-point dose-response
  area under the viability curve (AUC), normalized: 0.7115
MKN1; 12-point dose-response
  area under the viability curve (AUC), normalized: 0.3958
MKN28; 12-point dose-response
  area under the viability curve (AUC), normalized: 0.5257
MKN45; MKN45 cells, 12-point dose-response
  area under the viability curve (AUC), normalized: 0.4006
MKN74; 12-point dose-response
  area under the viability curve (AUC), normalized: −0.2214
NCC19; 12-point dose-response
  area under the viability curve (AUC), normalized: −0.8166
NCC20; 12-point dose-response
  area under the viability curve (AUC), normalized: −1.247
NCC24; 12-point dose-response
  area under the viability curve (AUC), normalized: −1.21
NCC59; 12-point dose-response
  area under the viability curve (AUC), normalized: 0.318
NCI_N87; 12-point dose-response
  area under the viability curve (AUC), normalized: 1.708
OCUM1; 12-point dose-response
  area under the viability curve (AUC), normalized: 2.118
SK4; SK4 cells, 12-point dose-response
  area under the viability curve (AUC), normalized: 0.5584
SNU16; 12-point dose-response
  area under the viability curve (AUC), normalized: 0.7701
SNU1750; SNU1750 cells, 12-point dose-response
  area under the viability curve (AUC), normalized: −1.896
SNU1967; 12-point dose-response
  area under the viability curve (AUC), normalized: −1.676
SNU1; 12-point dose-response
  area under the viability curve (AUC), normalized: −0.5037
SNU216; SNU216 cells, 12-point dose-response
  area under the viability curve (AUC), normalized: 0.2331
SNU484; SNU484 cells, 12-point dose-response
  area under the viability curve (AUC), normalized: −0.4125
SNU601; 12-point dose-response
  area under the viability curve (AUC), normalized: −0.2758
SNU620; 12-point dose-response
  area under the viability curve (AUC), normalized: −0.9643
SNU638; 12-point dose-response
  area under the viability curve (AUC), normalized: −0.5736
SNU668; SNU668 cells, 12-point dose-response
  area under the viability curve (AUC), normalized: 1.1951
SNU719; 12-point dose-response
  area under the viability curve (AUC), normalized: 0.4168
YCC11; YCC11 cells, 12-point dose-response
  area under the viability curve (AUC), normalized: −1.695
YCC2; 12-point dose-response
  area under the viability curve (AUC), normalized: 0.04339
YCC3; 12-point dose-response
  area under the viability curve (AUC), normalized: 2.808
FU97; 12-point dose-response
  area under the viability curve (AUC), normalized: 0

## C/C=C(\C)C(=O)N[C@@H](c1ccccc1)[C@@H](O)C(=O)O[C@H]1C[C@@]2(O)[C@@H](OC(=O)c3ccccc3)[C@@H]3[C@]4(OC(C)=O)CO[C@@H]4C[C@H](O)[C@@]3(C)C(=O)[C@H](OC(C)=O)C(=C1C)C2(C)C [Cephalomannine]
AGS
  Average Area Under the Viability Curve (AUC), AUC norm value: −2.055
Hs746T
  Average Area Under the Viability Curve (AUC), AUC norm value: 0.449
KATO3
  Average Area Under the Viability Curve (AUC), AUC norm value: 4.179
MKN1
  Average Area Under the Viability Curve (AUC), AUC norm value: −1.486
MKN28
  Average Area Under the Viability Curve (AUC), AUC norm value: −1.697
MKN45
  Average Area Under the Viability Curve (AUC), AUC norm value: 0
MKN74
  Average Area Under the Viability Curve (AUC), AUC norm value: 0.3528
NCC19
  Average Area Under the Viability Curve (AUC), AUC norm value: 1.7094
NCC20
  Average Area Under the Viability Curve (AUC), AUC norm value: −0.5011
NCC24
  Average Area Under the Viability Curve (AUC), AUC norm value: −0.7716
NCC59
  Average Area Under the Viability Curve (AUC), AUC norm value: 2.734
NCI_N87
  Average Area Under the Viability Curve (AUC), AUC norm value: −1.26
OCUM1
  Average Area Under the Viability Curve (AUC), AUC norm value: 1.3887
SK4
  Average Area Under the Viability Curve (AUC), AUC norm value: −1.144
SNU16
  Average Area Under the Viability Curve (AUC), AUC norm value: −1.737
SNU1750
  Average Area Under the Viability Curve (AUC), AUC norm value: 1.009
SNU1967
  Average Area Under the Viability Curve (AUC), AUC norm value: 0.6525
SNU1
  Average Area Under the Viability Curve (AUC), AUC norm value: −2.056
SNU216
  Average Area Under the Viability Curve (AUC), AUC norm value: 1.8612
SNU484
  Average Area Under the Viability Curve (AUC), AUC norm value: −0.7051
SNU601
  Average Area Under the Viability Curve (AUC), AUC norm value: 0.2225
SNU620
  Average Area Under the Viability Curve (AUC), AUC norm value: −2.403
SNU638
  Average Area Under the Viability Curve (AUC), AUC norm value: −0.03958
SNU668
  Average Area Under the Viability Curve (AUC), AUC norm value: −0.1911
SNU719
  Average Area Under the Viability Curve (AUC), AUC norm value: 4.893
YCC11
  Average Area Under the Viability Curve (AUC), AUC norm value: −1.013
YCC2
  Average Area Under the Viability Curve (AUC), AUC norm value: 0.3838
YCC3
  Average Area Under the Viability Curve (AUC), AUC norm value: 2.809
FU97
  Average Area Under the Viability Curve (AUC), AUC norm value: 0.4107

## Nc1ccn([C@@H]2O[C@H](CO)[C@@H](O)C2(F)F)c(=O)n1 [Gemcitabine (Gemzar), Gemcitabine]
AGS
  Average Area Under the Viability Curve (AUC), AUC norm value: −2.364
Hs746T
  Average Area Under the Viability Curve (AUC), AUC norm value: 1.71
KATO3
  Average Area Under the Viability Curve (AUC), AUC norm value: 4.1466
MKN1
  Average Area Under the Viability Curve (AUC), AUC norm value: −0.9169
MKN28
  Average Area Under the Viability Curve (AUC), AUC norm value: 1.089
MKN45
  Average Area Under the Viability Curve (AUC), AUC norm value: 1.053
MKN74
  Average Area Under the Viability Curve (AUC), AUC norm value: −1.402
NCC19
  Average Area Under the Viability Curve (AUC), AUC norm value: 1.697
NCC20
  Average Area Under the Viability Curve (AUC), AUC norm value: −0.9089
NCC24
  Average Area Under the Viability Curve (AUC), AUC norm value: −1.1
NCC59
  Average Area Under the Viability Curve (AUC), AUC norm value: 3.024
NCI_N87
  Average Area Under the Viability Curve (AUC), AUC norm value: 1.33
OCUM1
  Average Area Under the Viability Curve (AUC), AUC norm value: −1.402
SK4
  Average Area Under the Viability Curve (AUC), AUC norm value: −0.8764
SNU16
  Average Area Under the Viability Curve (AUC), AUC norm value: 0.514
SNU1750
  Average Area Under the Viability Curve (AUC), AUC norm value: 0
SNU1967
  Average Area Under the Viability Curve (AUC), AUC norm value: −4.705
SNU1
  Average Area Under the Viability Curve (AUC), AUC norm value: −0.3367
SNU216
  Average Area Under the Viability Curve (AUC), AUC norm value: 1.837
SNU484
  Average Area Under the Viability Curve (AUC), AUC norm value: −0.2757
SNU601
  Average Area Under the Viability Curve (AUC), AUC norm value: 0.2471
SNU620
  Average Area Under the Viability Curve (AUC), AUC norm value: −1.64
SNU638
  Average Area Under the Viability Curve (AUC), AUC norm value: −2.404
SNU668
  Average Area Under the Viability Curve (AUC), AUC norm value: −1.312
SNU719
  Average Area Under the Viability Curve (AUC), AUC norm value: 3.628
YCC11
  Average Area Under the Viability Curve (AUC), AUC norm value: −1.649
YCC2
  Average Area Under the Viability Curve (AUC), AUC norm value: 0.1111
YCC3
  Average Area Under the Viability Curve (AUC), AUC norm value: 0.1853
FU97
  Average Area Under the Viability Curve (AUC), AUC norm value: 1.888
